# Measurements reported in patent EP0409527A2, “Cis-diamineplatinum complexes with methanediphosphonate and substituted methanediphosphonate ligands as antitumor agents” (ENGELHARD CORPORATION, priority 1989, dated 1991).
# Where “and” joins values, the source holds several entries; their conditions need not be identical. Equal entries are not always repeated.
# Test system: L1210 leukemia
# Experiment: L1210 screening (L1210 leukemia tumor model, survival)
# Format: in vivo, Female CDF, mice
# Details: L1210, dose 10.00 mg/kg day one; 25% ILS or greater indicates activity, maximum 200%
# Procedure: (§1) The platinum-diphosphonate complexes were tested for antitumor activity using both Sarcoma 180 ascites and L1210 leukemia tumor models (see Tables 3 and 4).
# Female CDF, mice (16-22g) were injected with a suspension of 1x10^6 tumor cells in 0.5 mL of […] on day zero. On day one, the mice received the test compound in 0.5 mL of the chosen medium (usually water). Six mice were used for each test dose and six doses were normally given. Normal controls (six mice) received tumor on day zero and 0.5 mL of test medium on day one. Positive controls (six mice) were given tumor on day zero and 8 mg/kg cisplatin in 0.5 mL of […] on say one. All compound doses were adjusted for the actual average weight of the mice involved. Testing was terminated at 3 time the normal control mean life span. The percent increase in lifespan (%ILS) was calculated as follows: %ILS = [(mean life span (test)/mean life span (control))-1] X 100% A 25% ILS or greater indicates activity in this screen. The maximum possible ILS is 200%. The positive control must have an ILS > 25% for the test to be considered valid.
row,Molecule,%ILS [%]
1,"CC(O)(P(=O)([O-])[O-])P(=O)([O-])[O-].NC1CCCCC1N.NC1CCCCC1N.[Pt+2].[Pt+2] [Example 4, [Pt2(R,R-dach)2(HEDP)]]",8
2,Na[Pt2(en)2(PDP)] [Example 2],0
3,[Pt2(en)2(PDP-D-glucosamine)] [Example 5],-8
4,[Pt2(en)2(PDP-hydrazide)] [Example 7],-14

# Same assay, conditions: L1210, dose 20.00 mg/kg day one; 25% ILS or greater indicates activity, maximum 200%
row,Molecule,%ILS [%]
1,"CC(O)(P(=O)([O-])[O-])P(=O)([O-])[O-].NC1CCCCC1N.NC1CCCCC1N.[Pt+2].[Pt+2] [Example 4, [Pt2(R,R-dach)2(HEDP)]]",3
2,Na[Pt2(en)2(PDP)] [Example 2],-3
3,[Pt2(en)2(PDP-D-glucosamine)] [Example 5],-15
4,[Pt2(en)2(PDP-hydrazide)] [Example 7],21

# Same assay, conditions: L1210, dose 40.00 mg/kg day one; 25% ILS or greater indicates activity, maximum 200%
row,Molecule,%ILS [%]
1,"CC(O)(P(=O)([O-])[O-])P(=O)([O-])[O-].NC1CCCCC1N.NC1CCCCC1N.[Pt+2].[Pt+2] [Example 4, [Pt2(R,R-dach)2(HEDP)]]",24
2,Na[Pt2(en)2(PDP)] [Example 2],0
3,[Pt2(en)2(PDP-D-glucosamine)] [Example 5],10
4,[Pt2(en)2(PDP-hydrazide)] [Example 7],-18

# Same assay, conditions: L1210, dose 80.00 mg/kg day one; 25% ILS or greater indicates activity, maximum 200%
row,Molecule,%ILS [%]
1,"CC(O)(P(=O)([O-])[O-])P(=O)([O-])[O-].NC1CCCCC1N.NC1CCCCC1N.[Pt+2].[Pt+2] [Example 4, [Pt2(R,R-dach)2(HEDP)]]",28
2,Na[Pt2(en)2(PDP)] [Example 2],20
3,[Pt2(en)2(PDP-D-glucosamine)] [Example 5],4
4,[Pt2(en)2(PDP-hydrazide)] [Example 7],-14

# Same assay, conditions: L1210, dose 160.00 mg/kg day one; 25% ILS or greater indicates activity, maximum 200%
row,Molecule,%ILS [%]
1,"CC(O)(P(=O)([O-])[O-])P(=O)([O-])[O-].NC1CCCCC1N.NC1CCCCC1N.[Pt+2].[Pt+2] [Example 4, [Pt2(R,R-dach)2(HEDP)]]",40
2,Na[Pt2(en)2(PDP)] [Example 2],23
3,[Pt2(en)2(PDP-D-glucosamine)] [Example 5],13
4,[Pt2(en)2(PDP-hydrazide)] [Example 7],20

# Same assay, conditions: L1210, dose 320.00 mg/kg day one; 25% ILS or greater indicates activity, maximum 200%
row,Molecule,%ILS [%]
1,"CC(O)(P(=O)([O-])[O-])P(=O)([O-])[O-].NC1CCCCC1N.NC1CCCCC1N.[Pt+2].[Pt+2] [Example 4, [Pt2(R,R-dach)2(HEDP)]]",72
2,Na[Pt2(en)2(PDP)] [Example 2],11
3,[Pt2(en)2(PDP-D-glucosamine)] [Example 5],16
4,[Pt2(en)2(PDP-hydrazide)] [Example 7],0

# Same assay, conditions: L1210, survivors/mice, dose 10.00 mg/kg
row,Molecule,SURV
1,"CC(O)(P(=O)([O-])[O-])P(=O)([O-])[O-].NC1CCCCC1N.NC1CCCCC1N.[Pt+2].[Pt+2] [Example 4, [Pt2(R,R-dach)2(HEDP)]]",0/ 6
2,Na[Pt2(en)2(PDP)] [Example 2],0/ 6
3,[Pt2(en)2(PDP-hydrazide)] [Example 7],0/ 6

# Same assay, conditions: L1210, survivors/mice, dose 20.00 mg/kg
row,Molecule,SURV
1,"CC(O)(P(=O)([O-])[O-])P(=O)([O-])[O-].NC1CCCCC1N.NC1CCCCC1N.[Pt+2].[Pt+2] [Example 4, [Pt2(R,R-dach)2(HEDP)]]",0/ 6
2,Na[Pt2(en)2(PDP)] [Example 2],0/ 6
3,[Pt2(en)2(PDP-D-glucosamine)] [Example 5],0/ 6
4,[Pt2(en)2(PDP-hydrazide)] [Example 7],0/ 6

# Same assay, conditions: L1210, survivors/mice, dose 40.00 mg/kg
row,Molecule,SURV
1,"CC(O)(P(=O)([O-])[O-])P(=O)([O-])[O-].NC1CCCCC1N.NC1CCCCC1N.[Pt+2].[Pt+2] [Example 4, [Pt2(R,R-dach)2(HEDP)]]",0/ 6
2,Na[Pt2(en)2(PDP)] [Example 2],0/ 6
3,[Pt2(en)2(PDP-D-glucosamine)] [Example 5],0/ 6
4,[Pt2(en)2(PDP-hydrazide)] [Example 7],0/ 6

# Same assay, conditions: L1210, survivors/mice, dose 80.00 mg/kg
row,Molecule,SURV
1,"CC(O)(P(=O)([O-])[O-])P(=O)([O-])[O-].NC1CCCCC1N.NC1CCCCC1N.[Pt+2].[Pt+2] [Example 4, [Pt2(R,R-dach)2(HEDP)]]",0/ 6
2,Na[Pt2(en)2(PDP)] [Example 2],0/ 6
3,[Pt2(en)2(PDP-D-glucosamine)] [Example 5],0/ 6
4,[Pt2(en)2(PDP-hydrazide)] [Example 7],0/ 6

# Same assay, conditions: L1210, survivors/mice, dose 160.00 mg/kg
row,Molecule,SURV
1,"CC(O)(P(=O)([O-])[O-])P(=O)([O-])[O-].NC1CCCCC1N.NC1CCCCC1N.[Pt+2].[Pt+2] [Example 4, [Pt2(R,R-dach)2(HEDP)]]",0/ 6
2,Na[Pt2(en)2(PDP)] [Example 2],0/ 6
3,[Pt2(en)2(PDP-D-glucosamine)] [Example 5],0/ 6
4,[Pt2(en)2(PDP-hydrazide)] [Example 7],0/ 6

# Same assay, conditions: L1210, survivors/mice, dose 320.00 mg/kg
row,Molecule,SURV
1,"CC(O)(P(=O)([O-])[O-])P(=O)([O-])[O-].NC1CCCCC1N.NC1CCCCC1N.[Pt+2].[Pt+2] [Example 4, [Pt2(R,R-dach)2(HEDP)]]",0/ 6
2,Na[Pt2(en)2(PDP)] [Example 2],0/ 6
3,[Pt2(en)2(PDP-D-glucosamine)] [Example 5],0/ 6
4,[Pt2(en)2(PDP-hydrazide)] [Example 7],0/ 6

# Test system: Sarcoma 180 ascites
# Experiment: S180a screening (Sarcoma 180 ascites tumor model, survival)
# Format: in vivo, Female CFW mice
# Details: dose 10.00 mg/kg ip day one, ILS > 50% indicates activity
# Procedure: as §1
# Female CFW mice (18-25g) were implanted with 2 x 10^6 cells ip on day zero. Compounds were administered in 0.5 mL water ip on say one. Groups of 6 mice were used for each test dose as well as controls as defined above. The test was run for twice the MST of the control group, with survivors counted as dying on that day. An ILS of > 50% indicates activity. The tumor line was maintained through weekly transfer of 4 x 10^6 cells in CFW mice.
row,Molecule,%ILS [%]
1,"CC(O)(P(=O)([O-])[O-])P(=O)([O-])[O-].NC1CCCCC1N.NC1CCCCC1N.[Pt+2].[Pt+2] [Example 4, [Pt2(R,R-dach)2(HEDP)]]",-7
2,Na[Pt2(en)2(PDP)] [Example 2],-4
3,[Pt2(en)2(PDP-D-glucosamine)] [Example 5],0

# Same assay, conditions: dose 20.00 mg/kg ip day one, ILS > 50% indicates activity
row,Molecule,%ILS [%]
1,Na[Pt2(en)2(PDP)] [Example 2],5
2,[Pt2(en)2(PDP-D-glucosamine)] [Example 5],-3

# Same assay, conditions: dose 20.00 mg/kg ip day one, ILS > 50% indicates activity, 20 mg/kg
row,Molecule,%ILS
1,"CC(O)(P(=O)([O-])[O-])P(=O)([O-])[O-].NC1CCCCC1N.NC1CCCCC1N.[Pt+2].[Pt+2] [Example 4, [Pt2(R,R-dach)2(HEDP)]]",-10% and -4%

# Same assay, conditions: dose 40.00 mg/kg ip day one, ILS > 50% indicates activity
row,Molecule,%ILS [%]
1,Na[Pt2(en)2(PDP)] [Example 2],6
2,[Pt2(en)2(PDP-D-glucosamine)] [Example 5],-5

# Same assay, conditions: dose 80.00 mg/kg ip day one, ILS > 50% indicates activity
row,Molecule,%ILS [%]
1,Na[Pt2(en)2(PDP)] [Example 2],27
2,[Pt2(en)2(PDP-D-glucosamine)] [Example 5],0

# Same assay, conditions: dose 160.00 mg/kg ip day one, ILS > 50% indicates activity
row,Molecule,%ILS [%]
1,Na[Pt2(en)2(PDP)] [Example 2],48
2,[Pt2(en)2(PDP-D-glucosamine)] [Example 5],0

# Same assay, conditions: dose 160.00 mg/kg ip day one, ILS > 50% indicates activity, 160 mg/kg
row,Molecule,%ILS
1,"CC(O)(P(=O)([O-])[O-])P(=O)([O-])[O-].NC1CCCCC1N.NC1CCCCC1N.[Pt+2].[Pt+2] [Example 4, [Pt2(R,R-dach)2(HEDP)]]",95% and 77%

# Same assay, conditions: dose 256.00 mg/kg ip day one, ILS > 50% indicates activity
row,Molecule,%ILS [%]
1,"CC(O)(P(=O)([O-])[O-])P(=O)([O-])[O-].NC1CCCCC1N.NC1CCCCC1N.[Pt+2].[Pt+2] [Example 4, [Pt2(R,R-dach)2(HEDP)]]",47

# Same assay, conditions: dose 320.00 mg/kg ip day one, ILS > 50% indicates activity
row,Molecule,%ILS [%]
1,"CC(O)(P(=O)([O-])[O-])P(=O)([O-])[O-].NC1CCCCC1N.NC1CCCCC1N.[Pt+2].[Pt+2] [Example 4, [Pt2(R,R-dach)2(HEDP)]]",75
2,Na[Pt2(en)2(PDP)] [Example 2],49
3,[Pt2(en)2(PDP-D-glucosamine)] [Example 5],28

# Same assay, conditions: survivors/mice, dose 10.00 mg/kg ip
row,Molecule,SURV
1,"CC(O)(P(=O)([O-])[O-])P(=O)([O-])[O-].NC1CCCCC1N.NC1CCCCC1N.[Pt+2].[Pt+2] [Example 4, [Pt2(R,R-dach)2(HEDP)]]",0/ 6
2,Na[Pt2(en)2(PDP)] [Example 2],0/ 6
3,[Pt2(en)2(PDP-D-glucosamine)] [Example 5],0/ 6

# Same assay, conditions: survivors/mice, dose 20.00 mg/kg ip
row,Molecule,SURV
1,"CC(O)(P(=O)([O-])[O-])P(=O)([O-])[O-].NC1CCCCC1N.NC1CCCCC1N.[Pt+2].[Pt+2] [Example 4, [Pt2(R,R-dach)2(HEDP)]]",0/ 6
2,Na[Pt2(en)2(PDP)] [Example 2],0/ 6
3,[Pt2(en)2(PDP-D-glucosamine)] [Example 5],0/ 6

# Same assay, conditions: survivors/mice, dose 40.00 mg/kg ip
row,Molecule,SURV
1,"CC(O)(P(=O)([O-])[O-])P(=O)([O-])[O-].NC1CCCCC1N.NC1CCCCC1N.[Pt+2].[Pt+2] [Example 4, [Pt2(R,R-dach)2(HEDP)]]",0/ 6
2,Na[Pt2(en)2(PDP)] [Example 2],0/ 6
3,[Pt2(en)2(PDP-D-glucosamine)] [Example 5],0/ 6

# Same assay, conditions: survivors/mice, dose 80.00 mg/kg ip
row,Molecule,SURV
1,"CC(O)(P(=O)([O-])[O-])P(=O)([O-])[O-].NC1CCCCC1N.NC1CCCCC1N.[Pt+2].[Pt+2] [Example 4, [Pt2(R,R-dach)2(HEDP)]]",0/ 6
2,Na[Pt2(en)2(PDP)] [Example 2],1/ 6
3,[Pt2(en)2(PDP-D-glucosamine)] [Example 5],0/ 6

# Same assay, conditions: survivors/mice, dose 160.00 mg/kg ip
row,Molecule,SURV
1,Na[Pt2(en)2(PDP)] [Example 2],1/ 6
2,[Pt2(en)2(PDP-D-glucosamine)] [Example 5],0/ 6

# Same assay, conditions: survivors/mice, dose 160.00 mg/kg ip, 160 mg/kg
row,Molecule,SURV
1,"CC(O)(P(=O)([O-])[O-])P(=O)([O-])[O-].NC1CCCCC1N.NC1CCCCC1N.[Pt+2].[Pt+2] [Example 4, [Pt2(R,R-dach)2(HEDP)]]",5/ 6 and 3/ 6

# Same assay, conditions: survivors/mice, dose 256.00 mg/kg ip
row,Molecule,SURV
1,"CC(O)(P(=O)([O-])[O-])P(=O)([O-])[O-].NC1CCCCC1N.NC1CCCCC1N.[Pt+2].[Pt+2] [Example 4, [Pt2(R,R-dach)2(HEDP)]]",1/ 6

# Same assay, conditions: survivors/mice, dose 320.00 mg/kg ip
row,Molecule,SURV
1,"CC(O)(P(=O)([O-])[O-])P(=O)([O-])[O-].NC1CCCCC1N.NC1CCCCC1N.[Pt+2].[Pt+2] [Example 4, [Pt2(R,R-dach)2(HEDP)]]",4/ 6
2,Na[Pt2(en)2(PDP)] [Example 2],1/ 6
3,[Pt2(en)2(PDP-D-glucosamine)] [Example 5],0/ 5
